Article PMC10046901, “Molecular Analysis of the Superior Efficacy of a Dual Epidermal Growth Factor Receptor (EGFR)-DNA-Targeting Combi-Molecule in Comparison with Its Putative Prodrugs 6-Mono-Alkylamino- and 6,6-Dialkylaminoquinazoline in a Human Osteosarcoma Xenograft Model” (Cells, 2023)
Entries after “also recorded” stand apart in the source; their conditions may differ.

Experiments:
[1] = system: panel of osteosarcoma cells (U2-OS, Saos-2, MG-63, MNNG/HOS, KHOS/NP); test: Growth inhibition assay across panel of osteosarcoma cell lines; type: cell-based; settings: for IC50: range over five osteosarcoma cell lines
[2] = system: Saos-2 osteosarcoma xenograft; test: Saos-2 xenograft tumor growth (caliper, CT); type: in vivo, NSG male mice; settings: 80 mg/kg oral gavage every other day for 20 days; end of treatment
Protocol: Animal experiments were executed in accordance with a protocol approved by the McGill Institutional Animal Care Committee (McGill University Health Centre Research Institute and McGill University, Montreal, Canada). Xenografts of the tumors were obtained via unilateral and subcutaneous injection (5 × 10^6 cells in 100 µL of a PBS1x solution) into immunodeficient NSG male mice (N = 28; 8 weeks old; weight = 30 g; Charles River, Canada). The mice were maintained at optimal temperature (24 °C) and relative humidity (50%) on a 12/12-light/dark cycle with free access to water and food. The mice were monitored clinically every day; body weights were recorded and tumor volumes were measured with a caliper using the formula 4/3 π (length/2) (width/2)^2 every other day. Once tumors reached 68 mm^3, the mice were randomly divided into 4 groups: 1 was treated with ZR2002 (N = 7), another was treated with JS84 (N = 7), another was treated with JS61 (N = 7) and the last was treated with a vehicle (N = 7). […]
All PET/CT experiments were performed using nanoScan PET/CT for small animals (Mediso Medical Imaging Systems, Budapest, Hungary). […] The mice were kept awake for 45 min before the scans and weighed, and glycemia was measured in blood drawn from the caudal artery. […] Temperature and heart rate were monitored throughout the procedure using the Mediso system. […] The CT volume-of-interest (VOI) was drawn manually on the CT and PET co-registered images. ^18F-FDG accumulation was quantified as the mean standardized uptake value (SUV) between 20 and 30 min post-injection in a 3D volume-of-interest (VOI), which was named the metabolic volume (MV), delineated semi-automatically with iso-contours at a 40% threshold of the maximal SUV [30] in the tumor on PET/CT fusion slices using the PMOD software package v3.6 (PMOD Technologies Ltd., Zürich, Switzerland). In addition, another tumor volume-based parameter, called total lesion glycolysis (TLG), was calculated according to the product between the MV and the mean SUV. […]

[3] = system: Saos-2 osteosarcoma xenograft; test: 18F-FDG PET/CT imaging of tumors; type: in vivo, NSG male mice; settings: day 22, 80 mg/kg oral; for total lesion glycolysis (TLG): FDG-PET
Protocol: All PET/CT experiments were performed using nanoScan PET/CT for small animals (Mediso Medical Imaging Systems, Budapest, Hungary). The radiotracer 2′-deoxy-2′-[^18F]fluoro-D-glucose (^18F-FDG) was inoculated via 1 bolus injection in the tail vein (5.3 MBq in 100 µL). All animals were starved from the night before the experiment. The mice were kept awake for 45 min before the scans and weighed, and glycemia was measured in blood drawn from the caudal artery. Afterward, each mouse was placed in the scanner, with the […] at the center of the field of view. Each PET/CT session consisted of a 30 min PET emission scan followed by a 10 min CT transmission scan. The PET/CT scans were conducted under anesthesia (isoflurane 2%; medical air (0.6 L/min)) delivered via a nose cone. Temperature and heart rate were monitored throughout the procedure using the Mediso system. Images were reconstructed using expectation maximization (EM) and ordered subset expectation maximization (OSEM), normalized, and corrected for scatter, dead time and decay. The CT volume-of-interest (VOI) was drawn manually on the CT and PET co-registered images. ^18F-FDG accumulation was quantified as the mean standardized uptake value (SUV) between 20 and 30 min post-injection in a 3D volume-of-interest (VOI), which was named the metabolic volume (MV), delineated semi-automatically with iso-contours at a 40% threshold of the maximal SUV [30] in the tumor on PET/CT fusion slices using the PMOD software package v3.6 (PMOD Technologies Ltd., Zürich, Switzerland). In addition, another tumor volume-based parameter, called total lesion glycolysis (TLG), was calculated according to the product between the MV and the mean SUV. Furthermore, at the end of the imaging sessions, the tumors were resected and processed for ex vivo analysis.

Row | Compound | IC50 [1] | tumor size / growth inhibition vs vehicle (caliper and CT scan) [2] | CT tumor volume vs vehicle [3] | metabolic volume (MV) vs vehicle, FDG-PET [3] | total lesion glycolysis (TLG) [3] | fold more potent than JS61 ([1]; ratio of IC50 values across the panel)
1 | ClCCN(CCCl)c1ccc2ncnc(Nc3cccc(Br)c3)c2c1 [JS61] | 1390 to 12500 nM | no significant growth inhibition |  |  |  | 
2 | CN(CCCl)c1ccc2ncnc(Nc3cccc(Br)c3)c2c1 [JS84] | 180 to 5040 nM | no significant growth inhibition; also recorded: minor antitumor activity | not statistically different | not statistically different | reduction in TLG | 
3 | ClCCNc1ccc2ncnc(Nc3cccc(Br)c3)c2c1 [ZR2002] | 80 to 450 nM | significantly reduced | significant reduction | significant reduction | reduction in TLG | 17–36 fold
